In PubChem BioAssay AID1963858 (Molecular Pharmacology Branch, DTP, NCI, 2024):

Test system: HOP-62 multicell spheroids with HUVEC/MSC, viability
Experiment: Anticancer human tumor HOP-62 cell line growth inhibition [KRAS2];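 further: viability read after a week of compound exposure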;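 on viability, T/C: 100% = DMSO vehicle-treated spheroids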
Settings: for IC50: curve of first compound; for viability, T/C: stronger effect = lower value
Method in brief: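 KRAS-mutant tumor cells were grown as spheroids with HUVEC endothelial cells and human MSCs as stroma. Targeted agents were tested alone and with KRAS pathway inhibitors. Doses started at or near clinical Cmax, or 10 microM, descending half-log.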

[1] = second compound 0.1 µM, first compound 0.0316 µM
[2] = second compound 0.1 µM, first compound 0.1 µM
[3] = second compound 0.1 µM, first compound 0.316 µM
[4] = second compound 0.1 µM, first compound 1 µM
[5] = second compound 0.1 µM, first compound 3.16 µM
[6] = second compound 0.316 µM, first compound 0.0316 µM
[7] = second compound 0.316 µM, first compound 0.1 µM
[8] = second compound 0.316 µM, first compound 0.316 µM
[9] = second compound 0.316 µM, first compound 1 µM
[10] = second compound 0.316 µM, first compound 3.16 µM
[11] = second compound 1 µM, first compound 0.0316 µM
[12] = second compound 1 µM, first compound 0.1 µM
[13] = second compound 1 µM, first compound 0.316 µM
[14] = second compound 1 µM, first compound 1 µM
[15] = second compound 1 µM, first compound 3.16 µM
[16] = second compound 3.16 µM, first compound 0.0316 µM
[17] = second compound 3.16 µM, first compound 0.1 µM
[18] = second compound 3.16 µM, first compound 0.316 µM
[19] = second compound 3.16 µM, first compound 1 µM
[20] = second compound 3.16 µM, first compound 3.16 µM
[21] = second compound 10 µM, first compound 0.0316 µM
[22] = second compound 10 µM, first compound 0.1 µM
[23] = second compound 10 µM, first compound 0.316 µM
[24] = second compound 10 µM, first compound 1 µM
[25] = second compound 10 µM, first compound 3.16 µM

CC1OCC2(CCN(c3cnc(Sc4ccnc(N)c4Cl)c(N)n3)CC2)C1N (stereo not given) + CNCc1ccccc1-c1csc(C(C)Nc2nc(C)nc3cc(OC)c(OC)cc23)c1
IC50 (second compound 0.1 µM): > 10000 nM | IC50 (second compound 0.316 µM): > 10000 nM | IC50 (second compound 1 µM): 638 nM | IC50 (second compound 3.16 µM): < 31.6 nM | IC50 (second compound 10 µM): < 31.6 nM | viability, T/C [1]: 89.8% | viability, T/C [2]: 80.4% | viability, T/C [3]: 74.1% | viability, T/C [4]: 67.5% | viability, T/C [5]: 65.3% | viability, T/C (second compound 0.1 µM, first compound 10 µM): 58.8% | viability, T/C [6]: 85.5% | viability, T/C [7]: 88% | viability, T/C [8]: 69.2% | viability, T/C [9]: 53.6% | viability, T/C [10]: 52.3% | viability, T/C (second compound 0.316 µM, first compound 10 µM): 49.7% | viability, T/C [11]: 82.3% | viability, T/C [12]: 76.2% | viability, T/C [13]: 58.8% | viability, T/C [14]: 45.4% | viability, T/C [15]: 33.5% | viability, T/C (second compound 1 µM, first compound 10 µM): 34.1% | viability, T/C [16]: 34.3% | viability, T/C [17]: 7.49% | viability, T/C [18]: 0.61% | viability, T/C [19]: 0.1% | viability, T/C [20]: 0.15% | viability, T/C (second compound 3.16 µM, first compound 10 µM): 0.15% | viability, T/C [21]: 0.13% | viability, T/C [22]: 0.17% | viability, T/C [23]: 0.09% | viability, T/C [24]: 0.09% | viability, T/C [25]: 0.6% | viability, T/C (second compound 10 µM, first compound 10 µM): 0.16%

CC(=O)OC12COC1CC(O)C1(C)C(=O)C(O)C3=C(C)C(OC(=O)C(O)C(NC(=O)OC(C)(C)C)c4ccccc4)CC(O)(C(OC(=O)c4ccccc4)C21)C3(C)C (stereo not given) + COc1cc2nc(C)nc(NC(C)c3cc(N)cc(C(F)(F)F)c3)c2cc1OC1CCOC1
IC50 (second compound 0.1 µM): < 10 nM | IC50 (second compound 0.316 µM): < 10 nM | IC50 (second compound 1 µM): < 10 nM | IC50 (second compound 3.16 µM): < 10 nM | IC50 (second compound 10 µM): < 10 nM | viability, T/C (second compound 0.1 µM, first compound 0.01 µM): 40% | viability, T/C [1]: 32.3% | viability, T/C [2]: 36.2% | viability, T/C [3]: 32.7% | viability, T/C [4]: 37.5% | viability, T/C [5]: 53.4% | viability, T/C (second compound 0.316 µM, first compound 0.01 µM): 38.5% | viability, T/C [6]: 35.6% | viability, T/C [7]: 34.4% | viability, T/C [8]: 27.5% | viability, T/C [9]: 40.9% | viability, T/C [10]: 41% | viability, T/C (second compound 1 µM, first compound 0.01 µM): 29.7% | viability, T/C [11]: 35.1% | viability, T/C [12]: 34.2% | viability, T/C [13]: 39.5% | viability, T/C [14]: 39.6% | viability, T/C [15]: 38.7% | viability, T/C (second compound 3.16 µM, first compound 0.01 µM): 29.7% | viability, T/C [16]: 27.3% | viability, T/C [17]: 27.2% | viability, T/C [18]: 37% | viability, T/C [19]: 35.9% | viability, T/C [20]: 39.5% | viability, T/C (second compound 10 µM, first compound 0.01 µM): 34.2% | viability, T/C [21]: 31.1% | viability, T/C [22]: 51.7% | viability, T/C [23]: 30.7% | viability, T/C [24]: 33.7% | viability, T/C [25]: 40.6%
